In this experiment the test system is DLD1 reporter. Kind of experiment: reporter assay (DLD1 reporter assay). The class given is cell-based. The conditions noted are these: read-out: DLD1 4% Abs IC50. The text has this:
Various technologies can be utilized for characterizing and/or assessing provided technologies (e.g., agents (e.g., various peptides), compositions, methods, etc.) in accordance with the present disclosure. As described herein, in some embodiments, a useful technology is or comprises fluorescence polarization. In some embodiments, a useful technology assesses LogP or LogD. In some embodiments, a useful technology is or comprises a CHI LogD assay. In some embodiments, a useful technology assesses solubility. In some embodiments, a useful technology is or comprises NanoBRET. In some embodiments, a useful technology is or comprises a reporter assay (e.g., DLD1 reporter assay). In some embodiments, a useful technology is or comprises alphascreen. Certain useful protocols are described in the Examples. Those skilled in the art appreciate that suitable adjustments may be made to such protocols, e.g., according to specific conditions, agents, purposes, etc.
Various technologies can be utilized to assess technologies of the present disclosure. For example, in some embodiments, solubility, LogD, interactions with targets, etc. of various agents such as stapled peptides were assessed using technologies described in WO 2022/261257 (e.g., those in its Examples). In some embodiments, solubility, shake flask LogD, and binding to beta-catenin were assessed. In some embodiments, an assay for assessing interactions, e.g., with beta-catenin, was fluorescence polarization as described in WO 2022/261257. In some embodiments, an assay was Nano-BRET target engagement assay that assessed beta-catenin/TCF4 engagement as described in WO 2022/261257. In some embodiments, an assay was a reporter assay as reported in Example 4 of WO 2022/261257. In some embodiments, an assay was a COLO320DM proliferation assay as reported in Example 4 of WO 2022/261257.

Molecules are shown by their SMILES. Like-named read-outs stand apart in the source and are kept apart here.

As for `CC(=O)N1CCC[C@]12CC=CCCCC1(CCCC=CCCCOC(=O)N3CC[C@@]4(C3)NC(=O)[C@H](CCCCNC(=O)CC[C@@H](C(=O)N[C@@H](CCC(=O)O)C(=O)N[C@@H](C)C(N)=O)NC(=O)[C@H](Cc3csc5ccccc35)NC(=O)[C@H](Cc3ccsc3)NC4=O)NC(=O)[C@H](Cc3ccccc3)NC(=O)[C@H](C)NC(=O)C(C)(C)NC(=O)[C@H](Cc3cccc(C(=O)O)c3)NC(=O)[C@H](CC(=O)O)NC1=O)NC(=O)[C@H](CC(C)(C)C)NC(=O)[C@H](CC(=O)O)NC2=O` (relative stereo) [I-342, Ac-PL3-Asp-Npg-B5-Asp-3COOHF-Aib-Ala-Phe-Lys*3-PyrS2-3Thi-BztA-GlnR*3-Glu-Ala-NH2], the IC50 (DLD1 reporter, 4%) was ≤ 1000 nM.

Consider `CC(=O)N1CCC[C@]12CC=CCCCC1(CCCC=CCCCOC(=O)N3CC[C@@]4(C3)NC(=O)[C@H](CCCCNC(=O)CC[C@@H](C(=O)N[C@@H](C)C(N)=O)NC(=O)[C@H](Cc3csc5ccccc35)NC(=O)[C@H](Cc3ccccc3C(F)(F)F)NC4=O)NC(=O)[C@H](Cc3ccccc3)NC(=O)[C@H](C)NC(=O)C(C)(C)NC(=O)[C@H](Cc3cccc(C(=O)O)c3)NC(=O)[C@H](CCC(=O)O)NC1=O)NC(=O)[C@H](CC(C)(C)C)NC(=O)[C@H](CCC(=O)O)NC2=O` (relative stereo) [I-291, Ac-PL3-Glu-Npg-B5-Glu-3COOHF-Aib-Ala-Phe-Lys*3-PyrS2-2F3MeF-BztA-GlnR*3-Ala-NH2], for which the IC50 (DLD1 4%) fell in the range of 1000 to 5000 nM. On to `CC(=O)N1CCC[C@]12CC=CCCCC1(CCCC=CCCCOC(=O)N3CC[C@@]4(C3)NC(=O)[C@H](Cc3cn(nn3)CCCC[C@@H](C(=O)N[C@@H](C)C(N)=O)NC(=O)[C@H](Cc3csc5ccccc35)NC(=O)[C@H](Cc3ccsc3)NC4=O)NC(=O)[C@H](Cc3ccccc3)NC(=O)[C@H](C)NC(=O)C(C)(C)NC(=O)[C@H](Cc3cccc(C(=O)O)c3)NC(=O)[C@H](CC(=O)O)NC1=O)NC(=O)[C@H](CC(C)(C)C)NC(=O)[C@H](CC(=O)O)NC2=O` (stereo partly drawn) [I-336, Ac-PL3-Asp-Npg-B5-Asp-3COOHF-Aib-Ala-Phe-sAla*3-PyrS2-3Thi-BztA-TriAzLys*3-Ala-NH2], for which, under “DLD1 reporter, 4%”, the IC50 was 1000 to 5000 nM.

Consider `CC(=O)N1CCC[C@]12CC=CCCCC1(CCCC=CCCCOC(=O)N3CC[C@@]4(C3)NC(=O)[C@H](CCCCNC(=O)CC[C@@H](C(=O)N[C@@H](CC(C)C)C(=O)N[C@@H](CO)C(N)=O)NC(=O)[C@H](Cc3csc5ccccc35)NC(=O)[C@H](Cc3ccccc3C(F)(F)F)NC4=O)NC(=O)[C@H](Cc3ccccc3)NC(=O)[C@H](C)NC(=O)C3(CCCC3)NC(=O)[C@H](Cc3cccc(C(=O)O)c3)NC(=O)[C@H](CC(=O)O)NC1=O)NC(=O)[C@H](CC(C)(C)C)NC(=O)[C@H](CC(=O)O)NC2=O` (relative stereo) [I-141, Ac-PL3-Asp-Npg-B5-Asp-3COOHF-CyLeu-Ala-Phe-Lys*3-PyrS2-2F3MeF-BztA-GlnR*3-Leu-Ser-NH2], for which the IC50 (DLD1 4%) was ≤ 1000 nM. With `CC(=O)N1CCC[C@]12CC=CCCCC1(CCCC=CCCCOC(=O)N3CC[C@@]4(C3)NC(=O)[C@H](Cc3cn(nn3)CCCC[C@@H](C(=O)N[C@@H](C)C(N)=O)NC(=O)[C@H](Cc3csc5ccccc35)NC(=O)[C@H](Cc3ccsc3)NC4=O)NC(=O)[C@H](Cc3ccccc3)NC(=O)[C@H](C)NC(=O)[C@H](C)NC(=O)[C@H](Cc3cccc(C(=O)O)c3)NC(=O)[C@H](CC(=O)O)NC1=O)NC(=O)[C@H](CC(C)(C)C)NC(=O)[C@H](CC(=O)O)NC2=O` (stereo partly drawn) [I-338, Ac-PL3-Asp-Npg-B5-Asp-3COOHF-Ala-Ala-Phe-sAla*3-PyrS2-3Thi-BztA-TriAzLys*3-Ala-NH2], the IC50 (DLD1 reporter, 4%) is ≤ 1000 nM.

In the case of `CC(=O)N1CCC[C@]12CC=CCCCC1(CCCC=CCCCOC(=O)N3CC[C@@]4(C3)NC(=O)[C@H](CCCCNC(=O)CC[C@@H](C(=O)NC(C)(C)C(N)=O)NC(=O)[C@H](Cc3csc5ccccc35)NC(=O)[C@H](Cc3ccccc3C(F)(F)F)NC4=O)NC(=O)[C@H](Cc3ccccc3)NC(=O)[C@H](C)NC(=O)[C@H](C)NC(=O)[C@H](CN(CC(=O)O)CC(F)(F)F)NC(=O)[C@H](CC(=O)O)NC1=O)NC(=O)[C@H](CC(C)(C)C)NC(=O)[C@H](CC(=O)O)NC2=O` (single isomer, unassigned) [I-127, Ac-PL3-Asp-Npg-B5-Asp-TfeGA-Ala-Ala-Phe-Lys*3-PyrS2-2F3MeF-BztA-GlnR*3-Aib-NH2], the half-inhibitory concentration (IC50) (DLD1 4%) lay within 1000 to 5000 nM. For the molecule `CC(=O)N1CCC[C@]12CC=CCCCC1(CCCC=CCCCOC(=O)N3CC[C@@]4(C3)NC(=O)[C@H](Cc3cn(nn3)CCCC[C@@H](C(N)=O)NC(=O)[C@H](Cc3csc5ccccc35)NC(=O)[C@H](Cc3ccsc3)NC4=O)NC(=O)[C@H](Cc3ccccc3)NC(=O)[C@H](C)NC(=O)[C@H](C)NC(=O)[C@H](Cc3cccc(C(=O)O)c3)NC(=O)[C@H](CC(=O)O)NC1=O)NC(=O)[C@H](CC(C)(C)C)NC(=O)[C@H](CC(=O)O)NC2=O` (stereo partly drawn) [I-24, Ac-PL3-Asp-Npg-B5-Asp-3COOHF-Ala-Ala-Phe-sAla*3-PyrS2-3Thi-BztA-TriAzLys*3-NH2], the IC50 (DLD1 4%) was 1000 to 5000 nM.

Take `CC(=O)N1CCC[C@]12CC=CCCCC1(CCCC=CCCCOC(=O)N3CC[C@@]4(C3)NC(=O)[C@H](CCCCNC(=O)CC[C@@H](C(=O)N[C@@H](C)C(N)=O)NC(=O)[C@H](Cc3csc5ccccc35)NC(=O)[C@H](Cc3ccccc3C(F)(F)F)NC4=O)NC(=O)[C@H](Cc3ccccc3)NC(=O)[C@H](C)NC(=O)[C@H](CC(C)(C)C)NC(=O)[C@H](Cc3cccc(C(=O)O)c3)NC(=O)[C@H](CC(=O)O)NC1=O)NC(=O)[C@H](CC(C)(C)C)NC(=O)[C@H](CC(=O)O)NC2=O` (single isomer, unassigned) [I-99, Ac-PL3-Asp-Npg-B5-Asp-3COOHF-Npg-Ala-Phe-Lys*3-PyrS2-2F3MeF-BztA-GlnR*3-Ala-NH2]: under “DLD1 4%”, the IC50 is ≤ 1000 nM. `CC(=O)N1CCC[C@]12CC=CCCCC1(CCCC=CCCCOC(=O)N3CC[C@@]4(C3)NC(=O)[C@H](CCCCNC(=O)CC[C@@H](C(=O)N[C@@H](CC(C)C)C(N)=O)NC(=O)[C@H](Cc3csc5ccccc35)NC(=O)[C@H](Cc3ccccc3C(F)(F)F)NC4=O)NC(=O)[C@H](Cc3ccccc3)NC(=O)[C@H](C)NC(=O)[C@H](C)NC(=O)[C@H](CN(CC(=O)O)CC(F)(F)F)NC(=O)[C@H](CC(=O)O)NC1=O)NC(=O)[C@H](CC(C)(C)C)NC(=O)[C@H](CC(=O)O)NC2=O` (relative stereo) [I-128, Ac-PL3-Asp-Npg-B5-Asp-TfeGA-Ala-Ala-Phe-Lys*3-PyrS2-2F3MeF-BztA-GlnR*3-Leu-NH2]: the IC50 (DLD1 4%) lay in the range of 1000 to 5000 nM. As for `CC(=O)N1CCC[C@]12CC=CCCCC1(CCCC=CCCCOC(=O)N3CC[C@@]4(C3)NC(=O)[C@H](CCCCNC(=O)CC[C@@H](C(=O)N[C@@H](C)C(N)=O)NC(=O)[C@H](Cc3csc5ccccc35)NC(=O)[C@H](Cc3ccccc3C(F)(F)F)NC4=O)NC(=O)[C@H](Cc3ccccc3)NC(=O)[C@H](C)NC(=O)[C@H](C(C)C)NC(=O)[C@H](CN(CC(=O)O)CC(F)(F)F)NC(=O)[C@H](CC(=O)O)NC1=O)NC(=O)[C@H](CC(C)(C)C)NC(=O)[C@H](CC(=O)O)NC2=O` (single isomer, unassigned) [I-125, Ac-PL3-Asp-Npg-B5-Asp-TfeGA-Val-Ala-Phe-Lys*3-PyrS2-2F3MeF-BztA-GlnR*3-Ala-NH2], where the note is “DLD1 4%”, the IC50 was 1000 to 5000 nM. On to `CC(=O)N1CCC[C@]12CC=CCCCC1(CCCC=CCCCOC(=O)N3CC[C@@]4(C3)NC(=O)[C@H](CCCCn3cc(nn3)C[C@@H](C(=O)N[C@@H](C)C(N)=O)NC(=O)[C@H](Cc3csc5ccccc35)NC(=O)[C@H](Cc3ccsc3)NC4=O)NC(=O)[C@H](Cc3ccccc3)NC(=O)[C@H](C)NC(=O)[C@H](C)NC(=O)[C@H](Cc3cccc(C(=O)O)c3)NC(=O)[C@H](CC(=O)O)NC1=O)NC(=O)[C@H](CC(C)(C)C)NC(=O)[C@H](CC(=O)O)NC2=O` (stereo partly drawn) [I-337, Ac-PL3-Asp-Npg-B5-Asp-3COOHF-Ala-Ala-Phe-TriAzLys*3-PyrS2-3Thi-BztA-sAla*3-Ala-NH2], for which the IC50 (DLD1 reporter, 4%) was ≤ 1000 nM. In the case of `CC(=O)N1CCC[C@]12CC=CCCCC1(CCCC=CCCCOC(=O)N3CC[C@@]4(C3)NC(=O)[C@H](CCCCNC(=O)CCC[C@@H](C(=O)N[C@@H](C)C(N)=O)NC(=O)[C@H](Cc3csc5ccccc35)NC(=O)[C@H](Cc3ccsc3)NC4=O)NC(=O)[C@H](Cc3ccccc3)NC(=O)[C@H](C)NC(=O)[C@H](C)NC(=O)[C@H](Cc3cccc(C(=O)O)c3)NC(=O)[C@H](CC(=O)O)NC1=O)NC(=O)[C@H](CC(C)(C)C)NC(=O)[C@H](CC(=O)O)NC2=O` (relative stereo) [I-183, Ac-PL3-Asp-Npg-B5-Asp-3COOHF-Ala-Ala-Phe-Lys*3-PyrS2-3Thi-BztA-hGlnR*3-Ala-NH2], the IC50 (DLD1 4%) fell in the range of 1000 to 5000 nM. Regarding `CC(=O)N1CCC[C@]12CC=CCCCC1(CCCC=CCCCOC(=O)N3CC[C@@]4(C3)NC(=O)[C@H](CCCCNC(=O)CC[C@@H](C(=O)N[C@H](C(N)=O)C(C)C)NC(=O)[C@H](Cc3csc5ccccc35)NC(=O)[C@H](Cc3ccccc3C(F)(F)F)NC4=O)NC(=O)[C@H](Cc3ccccc3)NC(=O)[C@H](C)NC(=O)[C@H](C)NC(=O)[C@H](CN(CC(=O)O)CC(F)(F)F)NC(=O)[C@H](CC(=O)O)NC1=O)NC(=O)[C@H](CC(C)(C)C)NC(=O)[C@H](CC(=O)O)NC2=O` (relative stereo) [I-129, Ac-PL3-Asp-Npg-B5-Asp-TfeGA-Ala-Ala-Phe-Lys*3-PyrS2-2F3MeF-BztA-GlnR*3-Val-NH2], the IC50 (DLD1 4%) lay in the range of 1000 to 5000 nM.

Usually IC50 stands for the concentration at which inhibition is half-maximal.

The values are drawn from patent US20260207704A1, “STAPLED PEPTIDES AND METHODS THEREOF” (priority 2022, published 2026).
